# Read-outs that look alike come from different tables or passages of the source. *1 amine or outer side, *2 acyl side, *3 side chain or, on linkers, in order; H or OH if unused. Where a SMILES comes first, the peptide text is derived from it. Side-chain parts run from the residue outwards. [ ]: non-standard residue; d: D form. The star is where a group is joined. X2 = CCCCCCCCCCCCCCCCCC(=O)N[C@@H](CCC(=O)N[C@@H](CCC(=O)N[C@@H](CCC(=O)NCCCC[C@H](NC(=O)COCC(=O)NCCCOCCOCCOCCCNC(=O)COCC(=O)NCCCOCCOCCOCCCNC(=O)COCC(=O)NCCCOCCOCCOCCCN*)C(N)=O)C(=O)O)C(=O)O)C(=O)O; PEG12 = NCCOCCOCCOCCOCCOCCOCCOCCOCCOCCOCCOCCOCCC(=O)O; γGlu = O=C(O)[C@H](CCC(=O)[*:2])N[*:1]; Stearoyl = CCCCCCCCCCCCCCCCCC(=O)*; Nle = CCCC[C@H](N)C(=O)O; AEEA = NCCOCCOCC(=O)O; Aib = CC(C)(N)C(=O)O
# Key:
# RXFP1 = target: T1, RXFP1 (Homo sapiens, UniProt Q9HBX9); assay: OVCAR5 cAMP assay (HTRF), RXFP1 agonist activity; assay type: cell-based; conditions: for Emax: OVCAR-5
# T1 construct: OVCAR5 cells expressing endogenous RXFP1; endogenous in cells; host or cells: OVCAR5 cells
# T1 sequence (Q9HBX9 1-757): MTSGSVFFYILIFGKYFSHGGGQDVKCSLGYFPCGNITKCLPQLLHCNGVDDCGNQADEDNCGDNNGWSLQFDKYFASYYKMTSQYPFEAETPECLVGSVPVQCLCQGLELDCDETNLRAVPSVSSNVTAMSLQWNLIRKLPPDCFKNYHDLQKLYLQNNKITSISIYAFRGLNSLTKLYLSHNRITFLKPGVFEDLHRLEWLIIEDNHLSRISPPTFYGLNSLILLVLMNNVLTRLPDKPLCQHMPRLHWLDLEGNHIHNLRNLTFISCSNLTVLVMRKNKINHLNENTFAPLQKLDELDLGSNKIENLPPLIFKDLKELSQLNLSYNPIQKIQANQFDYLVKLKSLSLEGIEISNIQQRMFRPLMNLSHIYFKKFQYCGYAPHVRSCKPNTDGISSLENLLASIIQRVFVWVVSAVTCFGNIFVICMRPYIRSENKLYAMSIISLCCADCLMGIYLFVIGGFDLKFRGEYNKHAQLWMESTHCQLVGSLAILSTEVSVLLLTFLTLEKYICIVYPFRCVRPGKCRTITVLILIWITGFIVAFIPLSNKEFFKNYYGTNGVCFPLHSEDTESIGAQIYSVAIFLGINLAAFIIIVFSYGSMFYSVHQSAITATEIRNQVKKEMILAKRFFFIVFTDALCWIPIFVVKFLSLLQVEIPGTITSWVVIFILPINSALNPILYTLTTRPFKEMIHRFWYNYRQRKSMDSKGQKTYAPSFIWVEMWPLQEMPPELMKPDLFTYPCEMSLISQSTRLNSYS
# Procedure, shortened: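 OVCAR5 cells (endogenous RXFP1) pretreated 40 min at 37° C with 1 mM IBMX, then exposed to peptides in serum-free medium for 30 min at 37° C. Lysate cAMP read by HTRF; EC50 from variable-slope sigmoidal fit; Emax as % of H2-relaxin maximal cAMP in same run.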
# [1] = Solubility testing of peptides in buffer; assay type: physicochemical
# Method: Prior to the testing of solubility of a peptide batch, its purity (HPLC-UV) was determined.
# Acetate Buffer 50 mM pH4.5: 0.75 g […], 3H2O (Sigma 57545)+0.35 ml CH3CO2H 100% solution dissolved in Millipore water, adjusted to pH with diluted (1:1) CH3CO2H and diluted to 250 ml with Millipore water.
# In a 4 ml Ependorph vial, an accurately weighed sample of compound was diluted in study media to obtain target concentration of 2, 6 or 10 mg/ml of pure compound. The sample vials were shacked (rock 'roll shaker) for ˜19 h. 3004, Aliquots ( ) were filtered through a Millipore “Solvinert” plate (0.45 μm—PTFE hydrophilic).
# pH was measured with a micro electrode
# Waters Acquity UPLC System with DAD detector
# Column: Waters Peptide Column CSH C18 (130 Å; 1.7 μm; 50*2.1 mm)
# Column temperature: 60° C.
# Full loop (about 5 μL)—overfill factor 5
# Weak et Strong wash: H2O/ACN (75/25; V/V); Seal wash: H2O/IsOH (95/5; V/V). Mobile phase:
# Solvent A: 0.05% TFA in H2O; Solvent B: 0.035% TFA in CH3CN
# Gradient: from 0 to 12 min B=2% to 60%, from 12 to 14 min B=60% to 100%. Column washing 100% B 1 min, column equilibration 2% B 2.5 min.
# UV detector: wavelength: 220 nm.
# [2] = Stability testing of peptides in human plasma or blood; assay type: in vitro ADME; conditions: 37° C.; for Human Plasma stability % remaining T = 0: human plasma or blood, T = 0 (reference), 5 μM; for remaining at 1 h, 5 µM / remaining at 4 h, 5 µM: human plasma; for remaining at 1 h, 5 µM: read-out: Human Plasma stability % remaining 1 h; for remaining at 4 h, 5 µM: read-out: Human Plasma stability % remaining 4 h
# Procedure, shortened: (§1)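 Peptide at 5 µM final was incubated at 37 °C in heparinized rat or human plasma or blood, sampled up to 4 h, and extracted with acetonitrile/1% TFA. HPLC peak areas relative to t0 give % remaining peptide.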
# [3] = Stability testing of peptides in rat plasma or blood; assay type: in vitro ADME; conditions: 37° C.; for Rat plasma stability % remaining T = 0: rat plasma or blood, T = 0 (reference), 5 μM; for remaining at 1 h, 5 µM / remaining at 4 h, 5 µM: rat plasma; for remaining at 1 h, 5 µM: read-out: Rat plasma stability % remaining 1 h; for remaining at 4 h, 5 µM: read-out: Rat plasma stability % remaining 4 h
# Procedure, shortened: as §1
# [4] = Pharmacokinetic (PK) determination after i.v. or s.c. administration to rats; assay type: in vivo, Sprague Dawley rats; conditions: Sprague Dawley, Rat PK; for C0 / half-life: iv, 1 mg/kg i.v.; for C0: extrapolated plasma concentration at t=0, read-out: C0; for half-life / Cmax / Tmax / bioavailability: plasma; for half-life: read-out: T½ (converted); for Cmax / Tmax: sc, 3 mg/kg s.c.; for bioavailability: subcutaneous, 3 mg/kg s.c. vs 1 mg/kg i.v., dose-corrected AUC ratio
# Procedure, shortened: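 Sprague Dawley rats received peptide in PBS at 1 mg/kg i.v. or 3 mg/kg s.c., dose corrected for salts, solvent and purity. Plasma analysed by LC/MS after protein precipitation; non-compartmental PK, BLQ values set to zero, F% as dose-corrected s.c./i.v. AUC ratio.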
# [5] = OVCAR5 cells expressing endogenous RXFP1, cAMP readout, 30 min, 1 mM IBMX, read-out: EC50 cAMP assay in OVCAR 5 cells
# [6] = maximal cAMP relative to H2-relaxin maximal cAMP x 100, read-out: Emax cAMP assay in OVCAR 5 cells
# [7] = acetate buffer 50 mM pH 4.5, target solubility 2.0 mg/ml, read-out: Solubility Acetate buffer pH 4.5
# [8] = phosphate buffer 50 mM pH 7.4, target solubility 2.0 mg/ml, read-out: Solubility phosphate buffer pH 7.4
# [9] = maximal cAMP relative to H2-relaxin maximum (100%), read-out: EMax, OVCAR 5 cells (cAMP)
# [10] = acetate buffer, pH 4.5, read-out: Solubility Acetate buffer pH 4.5
# [11] = phosphate buffer, pH 7.4, read-out: Solubility phosphate buffer pH 7.4
Molecule,EC50 (RXFP1; [5]) [nM],Emax (RXFP1; [6]) [%],"solubility [1, 7] [µg/mL]","solubility [1, 8] [µg/mL]",Human Plasma stability % remaining T = 0 [2] [%],"remaining at 1 h, 5 µM [2] [%]","remaining at 4 h, 5 µM [2] [%]",Rat plasma stability % remaining T = 0 [3] [%],"remaining at 1 h, 5 µM [3] [%]","remaining at 4 h, 5 µM [3] [%]",Emax (RXFP1; [9]) [%],"solubility [1, 10] [µg/mL]","solubility [1, 11] [µg/mL]",C0 [4] [nM],half-life [4] [h],Cmax [4] [nM],Tmax [4] [h],bioavailability [4] [%],other results
"Ac-VIKLSGRELVRAQIAISGMSTWSKKKK-NH2 [KKKK(AcB7-29 C11.23S), reference compound]",206,84,2300,177,100,41,31,100,23,14,–,–,–,–,–,–,–,–,–
"Ac-VIKLSGRELVRAQIAISGMSTWSKRSL-NH2 [AcB7-33 C11.23S, reference compound]",–,70,1540,< 1,100,67,18,100,16,2,–,–,–,–,–,–,–,–,–
CCCCCCCCCCCCCCCCCC(=O)N[C@@H](CCC(=O)N[C@@H](CCC(=O)N[C@@H](CCC(=O)NCCCC[C@H](NC(=O)COCCOCCNC(=O)COCCOCCNC(=O)COCCOCCNC(=O)[C@H](CCCCNC(C)=O)NC(=O)[C@H](CCCCN)NC(=O)[C@H](CCCNC(=N)N)NC(=O)C(C)(C)NC(=O)[C@H](CO)NC(=O)[C@H](Cc1c[nH]c2ccccc12)NC(=O)[C@@H](NC(=O)[C@H](CO)NC(=O)[C@H](CCCC)NC(=O)CNC(=O)[C@H](CCC(=O)O)NC(=O)C(C)(C)NC(=O)C(C)(C)NC(=O)[C@@H](NC(=O)[C@H](CCCCNC(C)=O)NC(=O)[C@H](C)NC(=O)[C@H](CCCNC(=N)N)NC(=O)[C@@H](NC(=O)[C@H](CCCCN)NC(=O)[C@H](CCC(=O)O)NC(=O)[C@H](CCCNC(=N)N)NC(=O)CNC(=O)[C@H](CCC(=O)O)NC(=O)[C@H](CC(C)C)NC(C)=O)C(C)C)[C@@H](C)CC)[C@@H](C)O)C(N)=O)C(=O)O)C(=O)O)C(=O)O [compound 14] (Ac-LEGREKVRAK(Ac)I[Aib][Aib]EG[Nle]STWS[Aib]RKK(Ac)[AEEA][AEEA][AEEA]K([γGlu-γGlu-γGlu-Stearoyl])-NH2),–,–,–,> 2100,–,–,–,–,–,–,88,–,–,4000,3.4,1500,6,93,"EC50 (RXFP1; OVCAR5 cells, cAMP HTRF, read-out: EC50 (nM), OVCAR 5 cells (cAMP)): 0.04 nM"
"H-VIKLSGRELVRAQIAISGMSTWSKRSL-NH2 [B7-33 C11.23S, reference compound]",1640,90,–,–,100,18,3,100,15,2,–,–,–,–,–,–,–,–,"Solubility Acetate buffer pH 4.5 ([1]; acetate buffer 50 mM pH 4.5, target solubility 2.0 mg/ml): 1.9 mg/ml; Solubility phosphate buffer pH 7.4 ([1]; phosphate buffer 50 mM pH 7.4, target solubility 2.0 mg/ml): 0.014 mg/ml"

# More lines, main results first:
EC50 (RXFP1; [5]) [nM],Emax (RXFP1; [6]) [%],"solubility [1, 7] [µg/mL]","solubility [1, 8] [µg/mL]",Human Plasma stability % remaining T = 0 [2] [%],"remaining at 1 h, 5 µM [2] [%]","remaining at 4 h, 5 µM [2] [%]",Rat plasma stability % remaining T = 0 [3] [%],"remaining at 1 h, 5 µM [3] [%]","remaining at 4 h, 5 µM [3] [%]",Emax (RXFP1; [9]) [%],"solubility [1, 10] [µg/mL]","solubility [1, 11] [µg/mL]",C0 [4] [nM],half-life [4] [h],Cmax [4] [nM],Tmax [4] [h],bioavailability [4] [%],Molecule,other results
–,–,–,–,–,–,–,–,–,–,88,5600,5600,4000,3.96,3000,8,73,CCCCCCCCCCCCCCCCCC(=O)N[C@@H](CCC(=O)N[C@@H](CCC(=O)N[C@@H](CCC(=O)NCCCC[C@H](NC(=O)COCC(=O)NCCCOCCOCCOCCCNC(=O)COCC(=O)NCCCOCCOCCOCCCNC(=O)COCC(=O)NCCCOCCOCCOCCCNC(=O)[C@H](CCCCNC(C)=O)NC(=O)[C@H](CCCCN)NC(=O)[C@H](CCCNC(=N)N)NC(=O)C(C)(C)NC(=O)[C@H](CO)NC(=O)[C@H](Cc1c[nH]c2ccccc12)NC(=O)[C@@H](NC(=O)[C@H](CO)NC(=O)[C@H](CCCC)NC(=O)CNC(=O)[C@H](CCC(=O)O)NC(=O)C(C)(C)NC(=O)C(C)(C)NC(=O)[C@@H](NC(=O)[C@H](CCCCNC(C)=O)NC(=O)[C@H](C)NC(=O)[C@H](CCCNC(=N)N)NC(=O)[C@@H](NC(=O)[C@H](CCCCN)NC(=O)[C@H](CCC(=O)O)NC(=O)[C@H](CCCNC(=N)N)NC(=O)CNC(=O)[C@H](CCC(=O)O)NC(=O)[C@H](CC(C)C)NC(C)=O)C(C)C)[C@@H](C)CC)[C@@H](C)O)C(N)=O)C(=O)O)C(=O)O)C(=O)O [compound 20] (Ac-LEGREKVRAK(Ac)I[Aib][Aib]EG[Nle]STWS[Aib]RKK(Ac)-X2),–
–,–,–,–,–,–,–,–,–,–,89,7000,7000,2200,4.8,600,4,105,CCCCCCCCCCCCCCCCCC(=O)N[C@@H](CCC(=O)N[C@@H](CCC(=O)N[C@@H](CCC(=O)NCCCC[C@H](NC(=O)CCOCCOCCOCCOCCOCCOCCOCCOCCOCCOCCOCCOCCNC(=O)[C@H](CCCCN)NC(=O)[C@H](CCCNC(=N)N)NC(=O)C(C)(C)NC(=O)[C@H](CO)NC(=O)[C@H](Cc1c[nH]c2ccccc12)NC(=O)[C@@H](NC(=O)[C@H](CO)NC(=O)[C@H](CCCC)NC(=O)CNC(=O)[C@H](CCC(=O)O)NC(=O)C(C)(C)NC(=O)C(C)(C)NC(=O)[C@@H](NC(=O)[C@H](CCC(N)=O)NC(=O)[C@H](C)NC(=O)[C@H](CCCNC(=N)N)NC(=O)[C@@H](NC(=O)[C@H](CCCCN)NC(=O)[C@H](CCC(=O)O)NC(=O)[C@H](CCCNC(=N)N)NC(=O)CNC(=O)[C@H](CCC(=O)O)NC(=O)[C@H](CC(C)C)NC(C)=O)C(C)C)[C@@H](C)CC)[C@@H](C)O)C(N)=O)C(=O)O)C(=O)O)C(=O)O [compound 30] (Ac-LEGREKVRAQI[Aib][Aib]EG[Nle]STWS[Aib]RK[PEG12]K([γGlu-γGlu-γGlu-Stearoyl])-NH2),–
